These results are taken from patent US11339156B2, “3-(1H-pyrazol-4-yl)pyridine allosteric modulators of the M4 muscarinic acetylcholine receptor” (Merck Sharp & Dohme Corp., priority 2017, dated 2022).

The assay deals with T1, human M4 muscarinic acetylcholine receptor (Homo sapiens, UniProt P08173).
T1 construct: expressed in transfected cells
T1 sequence (P08173 1-479): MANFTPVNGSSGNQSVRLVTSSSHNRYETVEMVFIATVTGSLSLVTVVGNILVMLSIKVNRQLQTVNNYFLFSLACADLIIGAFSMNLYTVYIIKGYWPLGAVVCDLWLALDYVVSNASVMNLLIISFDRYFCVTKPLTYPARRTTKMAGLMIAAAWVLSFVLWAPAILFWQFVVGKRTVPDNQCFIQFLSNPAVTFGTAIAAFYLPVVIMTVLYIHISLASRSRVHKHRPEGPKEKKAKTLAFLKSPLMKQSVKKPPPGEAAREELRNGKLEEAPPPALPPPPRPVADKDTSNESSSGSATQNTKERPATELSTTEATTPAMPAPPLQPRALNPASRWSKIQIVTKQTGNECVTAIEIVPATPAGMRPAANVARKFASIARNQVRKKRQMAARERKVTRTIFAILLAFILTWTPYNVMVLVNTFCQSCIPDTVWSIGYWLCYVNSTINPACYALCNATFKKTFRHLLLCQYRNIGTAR
The assay is described as follows: human FLIPR-based M4 PAM assay (CHO-K1 cells with human M4 receptor and Gαqi5, calcium dye fluorescence). The class given is cell-based. Conditions: inflection point of 4 parameter logistic fit; acetylcholine added at 20% of maximum response; read-out: M4PAM IP. The method, then: In a typical experiment the M4 muscarinic acetylcholine receptor modulating activity of the compounds of the present invention was determined in accordance with the following experimental method. CHO-K1 cells stably transfected with human M4 receptor and chimeric G-protein Gαqi5 (Coward P, et al., Analytical Biochemistry, 270:242-248 (1999)) are thawed from liquid N2 storage, resuspended in growth medium, plated in black, clear bottom 384 well plates, and incubated 16-20 hours at 37° C., 5% CO2. On the day of assay, growth medium is removed, the cells are washed 2 times with wash buffer, and cells are incubated in dye loading buffer at 37° C., 5% CO2 for ˜1 hour. Following dye loading the cell plates are placed in a FLIPR Tetra instrument and while monitoring dye fluorescence (excitation […]), 10 uL of test substance at increasing concentrations is added, and fluorescence values are recorded for 4 min. Next, 10 uL of acetylcholine is added (final concentration calculated so as to achieve 20% of the maximum acetycholine response), and the fluorescence reading is continued for 3.5 min. In some cases, a third addition of acetylcholine (final concentration calculated to achieve 70% of the maximal acetylcholine response) is performed. The resulting dose response curves are fit to a 4 parameter logistic equation and the final result is determined as the inflection point (IP) of the curve
CHO-K1 cells stably transfected with human M4 receptor and chimeric G-protein Gαqi5 are thawed from liquid N2 storage, resuspended in growth medium, plated in black, clear bottom 384 well plates, and incubated 16-20 hours at 37° C., 5% CO2.
On the day of assay, growth medium is removed, the cells are washed 2 times with wash buffer, and cells are incubated in dye loading buffer at 37° C., 5% CO2 for ˜1 h. Following dye loading the cell plates are placed in a FLIPR Tetra instrument and while monitoring dye fluorescence ([…]), 10 uL of test substance at increasing concentrations is added, and fluorescence values are recorded for 4 min. Next, 10 uL of acetylcholine is added (final concentration calculated so as to achieve 20% of the maximum acetycholine response), and the fluorescence reading is continued for 3.5 min. In some cases, a third addition of acetylcholine (final concentration calculated to achieve 70% of the maximal acetylcholine response) is performed.
For the molecule `CC1(Cn2cc(-c3ccc(C#N)nc3-c3ccn4ccnc4c3)cn2)CCOC1` (racemic) [Example 108, 6-(imidazo[1,2-a]pyridin-7-yl)-5-(1-((3-methyltetrahydrofuran-3-yl)methyl)-1H-pyrazol-4-yl)picolinonitrile], the EC50 came to 95.9 nM.
The value for `N#Cc1ccc(-c2cnn(CC(F)(F)C3CC3)c2)c(-c2ccn3ccnc3c2)n1` [Example 1, 5-(1-(2-cyclopropyl-2,2-difluoroethyl)-1H-pyrazol-4-yl)-6-(imidazo[1,2-a]pyridin-7-yl)picolinonitrile] was 58.6 nM; that for `Cc1ccc(-c2cnn(CC3(C)CCCCC3)c2)c(-c2ccc3cn(C)nc3c2)n1` [Example 2, 2-methyl-6-(6-methyl-3-{1-[(1-methylcyclohexyl)methyl]-1H-pyrazol-4-yl}pyridin-2-yl)-2H-indazole] was 76 nM; that for `Cc1ccc(-c2cnn(CC3(C)CCCCC3)c2)c(-c2ccc3cn[nH]c3c2)n1` [Example 3, 6-(6-methyl-3-{1-[(1-methylcyclohexyl)methyl]-1H-pyrazol-4-yl}pyridin-2-yl)-1H-indazole] was 66.6 nM.
For the molecule `Cc1ccc(-c2cnn(CC3(C)CCCCC3)c2)c(-c2ccc3c(C)n[nH]c3c2)n1` [Example 4, 3-methyl-6-(6-methyl-3-{1-[(1-methylcyclohexyl)methyl]-1H-pyrazol-4-yl}pyridin-2-yl)-1H-indazole], the EC50 was 69.9 nM.
On to `Cc1ccc(-c2cnn(CC3(C)CCCCC3)c2)c(-c2cnc3c(c2)ncn3C)n1` [Example 5, 3-methyl-6-(6-methyl-3-{1-[(1-methylcyclohexyl)methyl]-1H-pyrazol-4-yl}pyridin-2-yl)-3H-imidazo[4,5-b]pyridine], for which the EC50 was found to be 38.8 nM.
The value for `Cc1ccc(-c2cnn(CC34CC(C3)C4)c2)c(-c2ccc3c(c2)C(=O)N(C)C3)n1` [Example 7, 6-{3-[1-(bicyclo[1.1.1]pent-1-ylmethyl)-1H-pyrazol-4-yl]-6-methylpyridin-2-yl}-2-methyl-2,3-dihydro-1H-isoindol-1-one] was 17.6 nM; that for `Cc1ccc(-c2cnn(CC34CC(C3)C4)c2)c(-c2ccc3c(c2)C(=O)NC3)n1` [Example 8, 6-{3-[1-(bicyclo[1.1.1]pent-1-ylmethyl)-1H-pyrazol-4-yl]-6-methylpyridin-2-yl}-2,3-dihydro-1H-isoindol-1-one] was 26.6 nM.
The value for `Cc1ccc(-c2cnn(CCC(C)(C)F)c2)c(-c2ccc3c(c2)C(=O)N(C)C3)n1` [Example 9, 6-{3-[1-(3-fluoro-3-methylbutyl)-1H-pyrazol-4-yl]-6-methylpyridin-2-yl}-2-methyl-2,3-dihydro-1H-isoindol-1-one] was 80.8 nM; that for `Cc1ccc(-c2cnn(CCC(C)(C)F)c2)c(-c2ccc3c(c2)C(=O)NC3)n1` [Example 10, 6-{3-[1-(3-fluoro-3-methylbutyl)-1H-pyrazol-4-yl]-6-methylpyridin-2-yl}-2,3-dihydro-1H-isoindol-1-one] was 130 nM.
The value for `Cc1ccc(-c2cnn(Cc3ccccc3)c2)c(-c2ccc3c(c2)C(=O)N(CC2CC2)C3)n1` [Example 11, 6-[3-(1-benzyl-1H-pyrazol-4-yl)-6-methylpyridin-2-yl]-2-(cyclopropylmethyl)-2,3-dihydro-1H-isoindol-1-one] was 136 nM.
On to `Cc1ccc(-c2cnn(CC34CCC(CC3)CC4)c2)c(-c2ccc3c(c2)C(=O)N(CC2CC2)C3)n1` [Example 12, 6-{3-[1-(bicyclo[2.2.2]oct-1-ylmethyl)-1H-pyrazol-4-yl]-6-methylpyridin-2-yl}-2-(cyclopropylmethyl)-2,3-dihydro-1H-isoindol-1-one], for which the EC50 is 24.5 nM.
For `Cc1ccc(-c2cnn(Cc3ccccc3F)c2)c(-c2ccc3c(c2)C(=O)N(C2CC2)C3)n1` [Example 13, 2-cyclopropyl-6-{3-[1-(2-fluorobenzyl)-1H-pyrazol-4-yl]-6-methylpyridin-2-yl}-2,3-dihydro-1H-isoindol-1-one], the EC50 is 126 nM.
Consider `Cc1ccc(-c2cnn(CC3CCC(F)(F)CC3)c2)c(-c2ccc3c(c2)C(=O)N(CC2CC2)C3)n1` [Example 14, 2-(cyclopropylmethyl)-6-(3-{1-[(4,4-difluorocyclohexyl)methyl]-1H-pyrazol-4-yl}-6-methylpyridin-2-yl)-2,3-dihydro-1H-isoindol-1-one], for which the EC50 was 48.8 nM.
Take `Cc1ccc(-c2cnn(CC3(C)CCC(F)(F)CC3)c2)c(-c2ccc3c(c2)C(=O)N(C)C3)n1` [Example 15, 6-(3-{1-[(4,4-difluoro-1-methylcyclohexyl)methyl]-1H-pyrazol-4-yl}-6-methylpyridin-2-yl)-2-methyl-2,3-dihydro-1H-isoindol-1-one]: the EC50 stood at 26.5 nM.
On to `Cc1cn2ccc(-c3nc(C#N)ccc3-c3cnn(CC(C)(C)CC(F)(F)F)c3)cc2n1` [Example 16, 6-(2-methylimidazo[1,2-a]pyridin-7-yl)-5-[1-(4,4,4-trifluoro-2,2-dimethylbutyl)-1H-pyrazol-4-yl]pyridine-2-carbonitrile], for which the EC50 is 61.7 nM.
Consider `Cc1cn2ccc(-c3ncccc3-c3cnn(CC4(CC(F)F)CC4)c3)cc2n1` [Example 17, 7-[3-(1-{[1-(2,2-difluoroethyl)cyclo-propyl]methyl}-1H-pyrazol-4-yl)pyridin-2-yl]-2-methylimidazo[1,2-a]pyridine], for which the EC50 came out at 277 nM.
With `CCC(F)(F)Cn1cc(-c2ccc(C#N)nc2-c2ccn3ccnc3c2)cn1` [Example 18, 5-[1-(2,2-difluorobutyl)-1H-pyrazol-4-yl]-6-imidazo[1,2-a]pyridin-7-ylpyridine-2-carbonitrile], the EC50 turned out to be 61.4 nM.
`N#Cc1ccc(-c2cnn(CC3(CF)CC3)c2)c(-c2ccn3ccnc3c2)n1` [Example 19, 5-(1-{[1-(fluoromethyl)cyclo-propyl]methyl}-1H-pyrazol-4-yl)-6-imidazo[1,2-a]pyridin-7-ylpyridine-2-carbonitrile]: the EC50 was found to be 49.9 nM.
As to `Cc1cn2ccc(-c3nc(C#N)ccc3-c3cnn(CC(C)(F)F)c3)cc2n1` [Example 20, 5-[1-(2,2-difluoropropyl)-1H-pyrazol-4-yl]-6-(2-methylimidazo[1,2-a]pyridin-7-yl)pyridine-2-carbonitrile], the EC50 was 144 nM.
Take `CC(C)C(F)(F)Cn1cc(-c2ccc(C#N)nc2-c2ccn3ccnc3c2)cn1` [Example 21, 5-[1-(2,2-difluoro-3-methylbutyl)-1H-pyrazol-4-yl]-6-imidazo[1,2-a]pyridin-7-ylpyridine-2-carbonitrile]: the EC50 was 30.7 nM.
In the case of `Cc1cn2ccc(-c3nc(C#N)ccc3-c3cnn(CC(F)(F)C(F)F)c3)cc2n1` [Example 22, 6-(2-methylimidazo[1,2-a]pyridin-7-yl)-5-[1-(2,2,3,3-tetrafluoropropyl)-1H-pyrazol-4-yl]pyridine-2-carbonitrile], the EC50 came out at 202 nM.
The value for `Cc1cn2ccc(-c3nc(C#N)ccc3-c3cnn(CC(F)(F)C(F)(F)C(F)F)c3)cc2n1` [Example 23, 5-[1-(2,2,3,3,4,4-hexafluorobutyl)-1H-pyrazol-4-yl]-6-(2-methylimidazo[1,2-a]pyridin-7-yl)pyridine-2-carbonitrile] was 42.3 nM.
On to `N#Cc1ccc(-c2cnn(CC(F)(F)C(F)(F)C(F)(F)F)c2)c(-c2ccn3ccnc3c2)n1` [Example 24, 5-[1-(2,2,3,3,4,4,4-heptafluorobutyl)-1H-pyrazol-4-yl]-6-imidazo[1,2-a]pyridin-7-ylpyridine-2-carbonitrile], for which the EC50 was determined as 89.9 nM.
